Source: patent US10316056B2, “Chemical compounds and use thereof for improving muscular quality” (BIOPHYTIS, priority 2014, dated 2019)

Legend:
[1] = system: myostatin gene expression in C2C12 cells; assay: Inhibition of myostatin expression in C2C12 cells (qPCR); type: cell-based; conditions: Mus musculus, percentage myostatin gene expression in cells in contact with the compounds related to control cells, C2C12, 6 h
In short: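 C2C12 myoblasts differentiated to myotubes for 5 days in 2% serum, then treated 6 h with compounds in serum-free, low-glucose (1 g/l) DMEM; IGF-1 100 ng/ml as reference. Myostatin mRNA quantified by RT-qPCR, expressed relative to untreated control as R=2^-ΔΔCt.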

myostatin transcript = assay: Mice subjected to a high-fat diet: myostatin transcript of the Soleus muscle; type: in vivo, C57BL/6J mice; conditions: 5 mg/kg orally; high-fat diet for 6 weeks; FIG. 4
Experimental: (§1) The 20E as comparative compound and the compounds according to the invention (Nos. 51 and 93) were administered orally, at a dose of 5 mg/kg of body weight, to 12-week-old C57BL/6J mice subjected to a high-fat diet for 6 weeks. The effect of the compounds on the weight and the amount of proteins of the Soleus muscle and also the transcripts of genes involved in myogenesis were evaluated.
In order to carry out the gene expression analysis, the muscle tissues were homogenized in a Trizol solution (500 μl), and the RNAs were extracted and purified using the phenol/chloroform method. An amount of […] of RNA was used as template for the synthesis of the first cDNA strand using oligo (dT)s as primers and the AMV reverse transcriptase enzyme as described by the supplier (Applied Biosystems 4368814). The q-PCRs were then carried out using a 7900HT machine equipped with a rapid system for real-time detection by PCR (Applied Biosystems) and the standard qPCR program (1 cycle of 95° C. for 15 min, 40 cycles of 95° C. for 15 s and 60° C. for 1 min, a 60-95° C. melt curve for the Sybergreen probes). The experiments are carried out in a Sybergreen SYBR master mix (Applied Biosystems) containing the 100 ng cDNA samples and a set of primers which bind to the two different exons and at a final concentration of 200 nM.
(§2) The relative differences in gene expression between treatments are expressed as increase or decrease in the number of cycle times [Ct] compared with the control group, the [Ct] value of each gene having been standardized with the beta-actin gene.
(§3) The in vivo study is carried out by evaluating the effect of 20E as comparative compound and of the molecules according to the invention (Nos. 51 and 93) administered orally, at a dose of 5 mg/kg of body weight, to C57BL/6 mice subjected to a high-fat diet for 6 weeks. The effect of the molecules on the weight and the amount of proteins of the Soleus muscle and also the transcripts of genes involved in myogenesis were evaluated.

MyoD transcripts = assay: Mice subjected to a high-fat diet: MyoD transcripts of the Soleus muscle; type: in vivo, C57BL/6J mice; conditions: 5 mg/kg orally; high-fat diet for 6 weeks; FIG. 5A
Experimental: as §1
(§4) Myogenesis, which is the process for forming muscle tissues, is controlled by several myogenic transcription factors which act as end effectors of the signaling cascade and produce transcripts involved in the various stages of development. The roles of the transcription factors have been described in various journals (Sabourin and Rudnicki 2000 and Le Grand and Rudnicki 2007). The Pax7 protein (Paired-box protein 7) maintains a population of satellite cells in quiescence and, with Myf5 (Myogenic factor 5), plays a role in the expansion of activated myoblasts. The MyoD protein (Myoblast Determination protein) appears to determine the differentiation potential of activated myoblasts, and cooperates with myogenin and the MEF2 (Myocyte Enhancer Factor 2) protein to control and bring about differentiation. Finally, MRF4 (Muscle-specific Regulatory Factor 4) is required for hypertrophy, even though it probably plays other roles. […]
as §2, §3

Myf5 gene transcripts = assay: Mice subjected to a high-fat diet: Myf5 transcripts; type: in vivo, C57BL/6J mice; conditions: 5 mg/kg orally; high-fat diet for 6 weeks
Experimental: as §1, §4, §2, §3

myogenin transcripts = assay: Mice subjected to a high-fat diet: myogenin transcripts of the Soleus muscle; type: in vivo, C57BL/6J mice; conditions: 5 mg/kg orally; high-fat diet for 6 weeks; FIG. 5B
Experimental: as §1, §4, §2, §3

[2] = rat, in vivo, po; for Cexp (coefficient of exposure): male, Wistar
Experimental: (§5) The pharmacokinetics of the compounds were evaluated orally using male Wistar rats (Charles River). […] The novel compounds according to the invention were administered at a dose of 10 mg/kg of body weight in the form of a mixture of 4 to 6 products. After administration, the blood was sampled from the tail at t=0.25 h, 0.5 h, 1 h, 3 h, 6 h and 8 h. The blood samples were centrifuged and the plasmas removed.

in vivo = conditions: male, Wistar, rat, po, 10 mg/kg
Experimental: as §5

For `CCSCC(=O)[C@H]1CC[C@@]2(O)C3=CC(=O)[C@@H]4C[C@@H](O)[C@@H](O)C[C@]4(C)C3CC[C@]12C` (stereo partly drawn) [Compound 93, (2S,3R,5R,10R,13R,14S,17S)-17-(2-ethylsulfanylacetyl)-2,3,14-trihydroxy-10,13-dimethyl-2,3,4,5,9,11,12,15,16,17-decahydro-1H-cyclopenta[a]phenanthren-6-one], which mrna remaining at 10 µM [1] is on record?
The mrna remaining at 10 µM was less than 70%.

What about the “myostatin expression in the Soleus muscle” value (myostatin transcript) of the same molecule?
The value was “comparably inhibit”.

What about the “transcripts of the MyoD gene” value (MyoD transcripts) of the same molecule?
The value was “increase”.

And the “transcripts of the Myf5 gene” value (Myf5 gene transcripts)?
Its value is “increase”.

What about the “transcript of the myogenin gene” value (myogenin transcripts) of the same molecule?
Its value is “increase”.

And the “Cexp (coefficient of exposure)” value [2]?
The value was 10.3.

What about the “plasma exposure compared with 20E” value [2] of the same molecule?
Its value is “better plasma exposure”.

What about the AUC (in vivo) of the same molecule?
Its AUC is 785 ng·h/mL.

What about the Cmax (in vivo) of the same molecule?
The Cmax was 230 ng/mL.

What about the Tmax (in vivo) of the same molecule?
Its Tmax is 30 min.

With `CCC(CC)C(=O)N(CCOC)C(C)[C@H]1CC[C@@]2(O)C3=CC(=O)[C@@H]4C[C@@H](O)[C@@H](O)C[C@]4(C)C3CC[C@]12C` (stereo partly drawn) [Compound 51, 2-ethyl-N-(2-methoxyethyl)-N-[1-[(2S,3R,5R,10R,13R,14S,17S)-2,3,14-trihydroxy-10,13-dimethyl-6-oxo-2,3,4,5,9,11,12,15,16,17-decahydro-1H-cyclopenta[a]phenanthren-17-yl]ethyl]butanamide] as the molecule, how does the mrna remaining at 10 µM [1] read?
Its mrna remaining at 10 µM is less than 70%.

And the “myostatin expression in the Soleus muscle” value (myostatin transcript)?
The value was “comparably inhibit”.

What about the “transcripts of the MyoD gene” value (MyoD transcripts) of the same molecule?
Its value is “increase”.

What about the “transcripts of the Myf5 gene” value (Myf5 gene transcripts) of the same molecule?
Its value is “increase”.

What about the “transcript of the myogenin gene” value (myogenin transcripts) of the same molecule?
Its value is “increase”.

And the “Cexp (coefficient of exposure)” value [2]?
Its value is 3.6.

And the “plasma exposure compared with 20E” value [2]?
The value was “better plasma exposure”.

And the AUC (in vivo)?
The AUC was 273 ng·h/mL.

What about the Cmax (in vivo) of the same molecule?
Its Cmax is 174 ng/mL.

And the Tmax (in vivo)?
Its Tmax is 15 min.
